This is an account of results in patent US10584117B2, “1,3,4-oxadiazole amide derivative compound as histone deacetylase 6 inhibitor, and pharmaceutical composition containing same” (Chong Kun Dang Pharmaceutical Corp., priority 2015, dated 2020).

The experiment concerns the target T1, human recombinant HDAC6 (Homo sapiens, UniProt Q9UBN7).
T1 construct: purchased Calbiochem 382180
T1 sequence (Q9UBN7 1-1215): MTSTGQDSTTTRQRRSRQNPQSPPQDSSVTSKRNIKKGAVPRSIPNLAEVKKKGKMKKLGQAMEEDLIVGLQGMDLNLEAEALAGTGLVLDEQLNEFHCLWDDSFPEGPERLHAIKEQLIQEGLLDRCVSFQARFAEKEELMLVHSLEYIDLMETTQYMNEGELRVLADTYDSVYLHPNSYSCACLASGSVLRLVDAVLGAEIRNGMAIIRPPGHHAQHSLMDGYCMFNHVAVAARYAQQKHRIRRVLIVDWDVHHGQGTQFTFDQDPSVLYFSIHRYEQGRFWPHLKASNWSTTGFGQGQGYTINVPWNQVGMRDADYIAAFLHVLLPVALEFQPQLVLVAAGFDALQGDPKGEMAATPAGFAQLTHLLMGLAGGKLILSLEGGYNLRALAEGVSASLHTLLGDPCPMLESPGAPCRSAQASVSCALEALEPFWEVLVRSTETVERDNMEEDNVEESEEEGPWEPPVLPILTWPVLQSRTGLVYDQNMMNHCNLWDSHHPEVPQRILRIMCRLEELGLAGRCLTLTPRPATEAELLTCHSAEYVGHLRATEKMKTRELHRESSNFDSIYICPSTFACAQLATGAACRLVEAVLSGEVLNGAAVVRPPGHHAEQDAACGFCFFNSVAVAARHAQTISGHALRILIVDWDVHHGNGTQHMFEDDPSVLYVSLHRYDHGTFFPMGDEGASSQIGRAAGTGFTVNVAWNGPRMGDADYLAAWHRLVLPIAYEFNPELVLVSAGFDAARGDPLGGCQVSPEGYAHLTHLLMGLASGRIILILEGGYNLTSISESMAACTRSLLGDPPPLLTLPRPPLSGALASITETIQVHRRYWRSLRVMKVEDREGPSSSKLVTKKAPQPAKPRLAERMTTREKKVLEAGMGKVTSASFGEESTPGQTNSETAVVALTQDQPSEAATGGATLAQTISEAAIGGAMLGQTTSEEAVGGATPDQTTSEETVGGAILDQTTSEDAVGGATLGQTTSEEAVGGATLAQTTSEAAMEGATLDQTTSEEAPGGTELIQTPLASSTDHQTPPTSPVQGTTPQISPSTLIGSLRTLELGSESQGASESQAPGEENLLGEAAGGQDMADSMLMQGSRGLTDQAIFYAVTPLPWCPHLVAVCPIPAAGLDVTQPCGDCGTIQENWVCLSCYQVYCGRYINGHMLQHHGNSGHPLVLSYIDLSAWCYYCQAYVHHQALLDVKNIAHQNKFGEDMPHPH
The experiment can be described thus: HDAC enzyme activity inhibition assay (HDAC6, fluorimetric kit). The class given is biochemical. To be noted: for HDAC6 selectivity (fold): HDAC6 versus HDAC1; for IC50: same protocol as the HDAC1 test. The essentials: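 Fluorimetric kit assay: human recombinant HDAC1 or HDAC6 (0.3 μg) reacted with 10 μM Fluor de Lys-SIRT1 substrate and 5-fold serially diluted compound for 60 minutes at 30° C, followed by 30 minutes of developer. Fluorescence was read at Ex 360/Em 460, and IC50 values were calculated from it.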

In general, IC50 refers to the concentration that gives 50% inhibition. On to `CN1CC(C(=O)N(Cc2ccc(-c3nnc(C(F)F)o3)cc2F)c2cccc(F)c2)C1` [Compound 11325, N-(4-(5-(difluoromethyl)-1,3,4-oxadiazol-2-yl)-2-fluorobenzyl)-N-(3-fluorophenyl)-1-methylazetidine-3-carboxamide], for which the “HDAC6 selectivity (fold)” value was 1111 fold and the IC50 worked out at 90 nM.
The matching figures for `CCN1CC(C(=O)N(Cc2ccc(-c3nnc(C(F)F)o3)cc2F)c2cccc(F)c2)C1` [Compound 11326, N-(4-(5-(difluoromethyl)-1,3,4-oxadiazol-2-yl)-2-fluorobenzyl)-1-ethyl-N-(3-fluorophenyl)azetidine-3-carboxamide]: 1754 fold and 57 nM.
In the case of `CCCN1CC(C(=O)N(Cc2ccc(-c3nnc(C(F)F)o3)cc2F)c2cccc(F)c2)C1` [Compound 11327, N-(4-(5-(difluoromethyl)-1,3,4-oxadiazol-2-yl)-2-fluorobenzyl)-N-(3-fluorophenyl)-1-propylazetidine-3-carboxamide], the “HDAC6 selectivity (fold)” value is reported as 2041 fold and the IC50 was 49 nM.
Regarding `CCCCN1CC(C(=O)N(Cc2ccc(-c3nnc(C(F)F)o3)cc2F)c2cccc(F)c2)C1` [Compound 11328, 1-butyl-N-(4-(5-(difluoromethyl)-1,3,4-oxadiazol-2-yl)-2-fluorobenzyl)-N-(3-fluorophenyl)azetidine-3-carboxamide], the “HDAC6 selectivity (fold)” value worked out at 1235 fold and the IC50 amounted to 81 nM.
The matching figures for `CC(C)N1CC(C(=O)N(Cc2ccc(-c3nnc(C(F)F)o3)cc2F)c2cccc(F)c2)C1` [Compound 11329, N-(4-(5-(difluoromethyl)-1,3,4-oxadiazol-2-yl)-2-fluorobenzyl)-N-(3-fluorophenyl)-1-isopropylazetidine-3-arboxamide]: 1786 fold and 56 nM.
As for `CC(=O)N1CC(C(=O)N(Cc2ccc(-c3nnc(C(F)F)o3)cc2F)c2cccc(F)c2)C1` [Compound 11330, 1-acetyl-N-(4-(5-(difluoromethyl)-1,3,4-oxadiazol-2-yl)-2-fluorobenzyl)-N-(3-fluorophenyl)azetidine-3-carboxamide], the “HDAC6 selectivity (fold)” value was found to be 1961 fold and the 50% inhibitory concentration (IC50) was 51 nM.
In the same order, the values of `CCC(=O)N1CC(C(=O)N(Cc2ccc(-c3nnc(C(F)F)o3)cc2F)c2cccc(F)c2)C1` [Compound 11331, N-(4-(5-(difluoromethyl)-1,3,4-oxadiazol-2-yl)-2-fluorobenzyl)-N-(3-fluorophenyl)-1-propionylazetidine-3-carboxamide] are 1786 fold and 56 nM.
For `CC(C)C(=O)N1CC(C(=O)N(Cc2ccc(-c3nnc(C(F)F)o3)cc2F)c2cccc(F)c2)C1` [Compound 11332, N-(4-(5-(difluoromethyl)-1,3,4-oxadiazol-2-yl)-2-fluorobenzyl)-N-(3-fluorophenyl)-1-isobutyrylazetidine-3-carboxamide], the “HDAC6 selectivity (fold)” value was 2326 fold and the IC50 is 43 nM.
For `CS(=O)(=O)N1CC(C(=O)N(Cc2ccc(-c3nnc(C(F)F)o3)cc2F)c2cccc(F)c2)C1` [Compound 11333, N-(4-(5-(difluoromethyl)-1,3,4-oxadiazol-2-yl)-2-fluorobenzyl)-N-(3-fluorophenyl)-1-(methylsulfonyl)azetidine-3-carboxamide], the “HDAC6 selectivity (fold)” value is 3448 fold and the IC50 was determined as 29 nM.
Turning to `CCS(=O)(=O)N1CC(C(=O)N(Cc2ccc(-c3nnc(C(F)F)o3)cc2F)c2cccc(F)c2)C1` [Compound 11334, N-(4-(5-(difluoromethyl)-1,3,4-oxadiazol-2-yl)-2-fluorobenzyl)-1-(ethylsulfonyl)-N-(3-fluorophenyl)azetidine-3-carboxamide], the “HDAC6 selectivity (fold)” value is on record as 2632 fold and the IC50 is 38 nM.
In the same order, the values of `CC(=O)N(Cc1ccc(-c2nnc(C(F)F)o2)cc1F)c1cccc(F)c1` [Compound 11339, N-(4-(5-(difluoromethyl)-1,3,4-oxadiazol-2-yl)-2-fluorobenzyl)-N-(3-fluorophenyl)acetamide] are 2041 fold and 49 nM.
In the same order, the values of `CC(=O)N(Cc1ccc(-c2nnc(C(F)(F)F)o2)cc1F)c1cccc(F)c1` [Compound 11340, N-(2-fluoro-4-(5-(trifluoromethyl)-1,3,4-oxadiazol-2-yl)benzyl)-N-(3-fluorophenyl)acetamide] are 1087 fold and 92 nM.
In the same order, the values of `O=C(c1ccncc1)N(Cc1ccc(-c2nnc(C(F)F)o2)cn1)c1ccccc1` [Compound 11341, N-((5-(5-(difluoromethyl)-1,3,4-oxadiazol-2-yl)pyridin-2-yl)methyl)-N-phenylisonicotinamide] are 2941 fold and 34 nM.
For the compound `CCC(=O)N(Cc1ccc(-c2nnc(C(F)F)o2)cc1F)c1cccc(F)c1` [Compound 11356, N-(4-(5-(difluoromethyl)-1,3,4-oxadiazol-2-yl)-2-fluorobenzyl)-N-(3-fluorophenyl)propionamide], the “HDAC6 selectivity (fold)” value was 1961 fold and the IC50 was determined as 51 nM.
As for `CCCC(=O)N(Cc1ccc(-c2nnc(C(F)F)o2)cc1F)c1cccc(F)c1` [Compound 11357, N-(4-(5-(difluoromethyl)-1,3,4-oxadiazol-2-yl)-2-fluorobenzyl)-N-(3-fluorophenyl)butyramide], the “HDAC6 selectivity (fold)” value is on record as 1149 fold and the 50% inhibitory concentration (IC50) stood at 87 nM.
In the same order, the values of `CC(C)CC(=O)N(Cc1ccc(-c2nnc(C(F)F)o2)cc1F)c1cccc(F)c1` [Compound 11358, N-(4-(5-(difluoromethyl)-1,3,4-oxadiazol-2-yl)-2-fluorobenzyl)-N-(3-fluorophenyl)-3-methylbutanamide] are 847 fold and 118 nM.
The matching figures for `O=C(c1ccncc1)N(Cc1ccc(-c2nnc(C(F)(F)F)o2)cn1)c1cccc(F)c1` [Compound 11359, N-(3-fluorophenyl)-N-((5-(5-(trifluoromethyl)-1,3,4-oxadiazol-2-yl)pyridin-2-yl)methyl)isonicotinamide]: 2941 fold and 34 nM.
In the same order, the values of `O=C(c1ccncc1)N(Cc1ccc(-c2nnc(C(F)F)o2)cn1)c1cccc(F)c1` [Compound 11360, N-((5-(5-(difluoromethyl)-1,3,4-oxadiazol-2-yl)pyridin-2-yl)methyl)-N-(3-fluorophenyl)isonicotinamide] are 3125 fold and 32 nM.
As for `O=C(c1cccnc1)N(Cc1ccc(-c2nnc(C(F)F)o2)cn1)c1cccc(F)c1` [Compound 11376, N-((5-(5-(difluoromethyl)-1,3,4-oxadiazol-2-yl)pyridin-2-yl)methyl)-N-(3-fluorophenyl)nicotinamide], the “HDAC6 selectivity (fold)” value turned out to be 4167 fold and the concentration for half-maximal inhibition (IC50) is 24 nM.
The matching figures for `CN1CCC(C(=O)N(Cc2ccc(-c3nnc(C(F)F)o3)cn2)c2ccccc2)CC1` [Compound 11414, N-((5-(5-(difluoromethyl)-1,3,4-oxadiazol-2-yl)pyridin-2-yl)methyl)-1-methyl-N-phenylpipetidine-4-carboxamide]: 2500 fold and 40 nM.
In the same order, the values of `CN1CCC(C(=O)N(Cc2ccc(-c3nnc(C(F)F)o3)cn2)c2cccc(F)c2)CC1` [Compound 11418, N-((5-(5-(difluoromethyl)-1,3,4-oxadiazol-2-yl)pyridin-2-yl)methyl)-N-(3-fluorophenyl)-1-methylpiperidine-4-carboxamide] are 2500 fold and 40 nM.
In the same order, the values of `CCN1CCC(C(=O)N(Cc2ccc(-c3nnc(C(F)F)o3)cn2)c2cccc(F)c2)CC1` [Compound 11419, N-((5-(5-(difluoromethyl)-1,3,4-oxadiazol-2-yl)pyridin-2-yl)methyl)-1-ethyl-N-(3-fluorophenyl)piperidine-4-carboxamide] are 3333 fold and 30 nM.
